From ChEMBL document CHEMBL1147032, “Design, synthesis, and biological evaluation of substituted 2-alkylthio-1,5-diarylimidazoles as selective COX-2 inhibitors” (Bioorg Med Chem, 2007) come the findings set out here.

Test [1] relates to Rattus norvegicus. Nature of the test: Antiinflammatory activity against carrageenan-induced paw edema in Sprague-Dawley rat at 50 mg/kg, po after 5 hrs. Type of test: functional. On the technique in general: In the carrageenan paw model, swelling and tenderness develop within hours.
Test [2] concerns Rattus norvegicus. As to the kind of experiment: Antiinflammatory activity against carrageenan-induced paw edema in Sprague-Dawley rat at 50 mg/kg, po after 3 hrs. Type of test: functional.
Test [3] concerns the target T1, Prostaglandin G/H synthase 2 (Mus musculus, UniProt Q05769).
T1 sequence (Q05769 whole entry): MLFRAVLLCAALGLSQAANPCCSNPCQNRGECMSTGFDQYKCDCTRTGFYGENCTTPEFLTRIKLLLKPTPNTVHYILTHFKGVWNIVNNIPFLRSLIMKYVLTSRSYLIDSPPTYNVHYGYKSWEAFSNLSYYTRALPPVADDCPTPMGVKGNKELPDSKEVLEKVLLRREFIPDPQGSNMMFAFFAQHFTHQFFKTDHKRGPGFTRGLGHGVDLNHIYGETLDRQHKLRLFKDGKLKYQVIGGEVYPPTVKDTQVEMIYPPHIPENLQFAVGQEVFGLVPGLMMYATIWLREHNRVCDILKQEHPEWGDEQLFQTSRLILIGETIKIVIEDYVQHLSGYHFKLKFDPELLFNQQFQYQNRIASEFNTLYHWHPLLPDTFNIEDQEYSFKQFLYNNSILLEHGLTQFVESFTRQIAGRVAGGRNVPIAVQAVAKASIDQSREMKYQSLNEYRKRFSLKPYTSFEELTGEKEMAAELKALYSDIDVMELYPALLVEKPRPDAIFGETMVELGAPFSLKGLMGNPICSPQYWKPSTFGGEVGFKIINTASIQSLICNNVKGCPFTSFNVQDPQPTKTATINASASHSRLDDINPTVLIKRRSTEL
Nature of the test: Inhibition of mouse COX2.

The target of test [4] is T2, Prostaglandin G/H synthase 1 (Ovis aries, UniProt P05979).
T2 sequence (P05979 whole entry): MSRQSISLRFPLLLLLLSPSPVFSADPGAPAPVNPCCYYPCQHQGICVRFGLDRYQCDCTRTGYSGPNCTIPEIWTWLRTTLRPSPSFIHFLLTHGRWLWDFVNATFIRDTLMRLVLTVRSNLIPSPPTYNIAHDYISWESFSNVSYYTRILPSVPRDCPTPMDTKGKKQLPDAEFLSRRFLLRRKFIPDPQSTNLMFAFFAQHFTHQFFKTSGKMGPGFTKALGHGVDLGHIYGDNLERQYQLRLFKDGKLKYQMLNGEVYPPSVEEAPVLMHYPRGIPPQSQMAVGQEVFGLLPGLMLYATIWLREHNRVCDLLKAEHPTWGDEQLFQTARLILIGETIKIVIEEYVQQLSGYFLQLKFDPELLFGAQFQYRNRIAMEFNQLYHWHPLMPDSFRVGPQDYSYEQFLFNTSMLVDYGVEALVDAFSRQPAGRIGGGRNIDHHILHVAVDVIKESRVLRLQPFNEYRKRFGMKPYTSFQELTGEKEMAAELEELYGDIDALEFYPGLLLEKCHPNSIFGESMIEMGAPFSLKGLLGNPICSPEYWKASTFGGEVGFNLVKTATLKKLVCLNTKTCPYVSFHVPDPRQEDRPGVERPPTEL
Nature of the test: Inhibition of ovine COX1.

Test [5] in a line: Inhibition of ovine COX1 at 25 uM.
Test [6] in a line: Inhibition of ovine COX1 at 0.5 uM.

pIC50: −log10 of the molar value.

On to `CSc1ncc(-c2ccc(S(C)(=O)=O)cc2)n1-c1ccc(Br)cc1`, for which the inhibition in vivo (commonly the relative decrease from the control value, in per cent) at 50 mg/kg in the test on Rattus norvegicus [1] stood at 88%; with Rattus norvegicus [2], 90.7%. Moreover, the figures for the pIC50 in test [3] and in test [4] were less than 4.60 and 6.37, respectively.

Regarding `CCSc1ncc(-c2ccc(S(C)(=O)=O)cc2)n1-c1ccc(F)cc1`, the inhibition in vivo at 50 mg/kg turned out to be 43% in the test with Rattus norvegicus [1] and 65% in the test with Rattus norvegicus [2]. The figures for the inhibition in test [5] and in test [6] were 29% and 21%, respectively. Besides, the negative logarithm of the IC50 (pIC50) (usually −log10 of the IC50, conventionally taken in molar units) in test [3] was less than 4.60; in test [4], 6.30.

In the case of `CCSc1ncc(-c2ccc(S(C)(=O)=O)cc2)n1-c1ccc(Br)cc1`, the results for the inhibition in vivo at 50 mg/kg in the test on Rattus norvegicus [1] and with Rattus norvegicus [2] were 59% and 66%, respectively. Further, the values for the pIC50 in test [3] and in test [4] were less than 4.60 and less than 5.40, respectively.

Regarding `CSc1ncc(-c2ccc(S(C)(=O)=O)cc2)n1-c1ccccc1`, the inhibition in vivo at 50 mg/kg stood at 61.6% in the test with Rattus norvegicus [1] and 74.1% in the test with Rattus norvegicus [2]. For the same compound, the negative logarithm of the IC50 (pIC50) in test [3] was less than 4.60; in test [4], 6.24.

As for `CCSc1ncc(-c2ccc(S(C)(=O)=O)cc2)n1-c1ccc(Cl)cc1`, the inhibition in vivo at 50 mg/kg with Rattus norvegicus [1] turned out to be 52.7%; in the test with Rattus norvegicus [2] it was 53.8%. Further, the negative logarithm of the IC50 (pIC50) in test [3] was less than 4.60; in test [4], 6.09.

Turning to `CCSc1ncc(-c2ccc(S(C)(=O)=O)cc2)n1-c1ccc(OC)cc1`, the negative logarithm of the IC50 (pIC50) in test [3] was less than 4.60; in test [4], 6.29.

For the compound `CSc1ncc(-c2ccc(S(C)(=O)=O)cc2)n1-c1ccc(F)cc1`, the results for the inhibition in vivo at 50 mg/kg in the test on Rattus norvegicus [1] and in the test on Rattus norvegicus [2] were 18.7% and 40%, respectively. The negative-log IC50 (pIC50) in test [3] is less than 4.60; in test [4], 6.28.

As for `CSc1ncc(-c2ccc(S(C)(=O)=O)cc2)n1-c1ccc(Cl)cc1`, the inhibition in vivo at 50 mg/kg was determined as 42.7% in the test with Rattus norvegicus [1] and 59.5% in the test on Rattus norvegicus [2]. The pIC50 in test [3] was less than 4.60; in test [4], 6.33.

Consider `COc1ccc(-n2c(-c3ccc(S(C)(=O)=O)cc3)cnc2SC)cc1`, for which the inhibition in vivo at 50 mg/kg with Rattus norvegicus [1] came to 34.3%; with Rattus norvegicus [2] it was 41.3%. The results for the pIC50 in test [3] and in test [4] were less than 4.60 and 5.58, respectively.

`Cc1ccc(-c2cc(C(F)(F)F)nn2-c2ccc(S(N)(=O)=O)cc2)cc1` [CELECOXIB]: the inhibition in vivo at 50 mg/kg in the test with Rattus norvegicus [1] came out at 50%; with Rattus norvegicus [2], 70.5%.

Consider `CCSc1ncc(-c2ccc(S(C)(=O)=O)cc2)n1-c1ccccc1`, for which the inhibition in vivo at 50 mg/kg in the test with Rattus norvegicus [1] turned out to be 51.1%; in the test with Rattus norvegicus [2], 89.7%. The pIC50 in test [3] was less than 4.60; in test [4], 6.24.
